Results reported in the NIST ThermoML archive (doi:10.1021/je1002237).

Experiment: xn = mol fraction of the nth substance listed
Conditions: 101 kPa, Liquid

CCOS(=O)(=O)[O-].CCn1cc[n+](C)c1 [1-ethyl-3-methylimidazolium ethyl sulfate] + CO
mass density [kg/m3]
Conditions	278.15 K	283.15 K	288.15 K	293.15 K	298.15 K	303.15 K	308.15 K
x2 = 0	1251.04	1247.5	1244.04	1240.66	1237.27	1233.89	1230.51
x2 = 0.005	1250.51	1246.96	1243.52	1240.13	1236.74	1233.36	1229.98
x2 = 0.0097	1250.12	1246.57	1243.14	1239.75	1236.36	1232.97	1229.59
x2 = 0.015	1249.8	1246.24	1242.81	1239.42	1236.02	1232.63	1229.24
x2 = 0.0252	1248.78	1245.23	1241.82	1238.42	1235.02	1231.63	1228.25
x2 = 0.0403	1247.44	1243.88	1240.48	1237.07	1233.67	1230.27	1226.88
x2 = 0.0598	1245.64	1242.13	1238.72	1235.31	1231.89	1228.49	1225.09
x2 = 0.08	1243.77	1240.29	1236.86	1233.44	1230.02	1226.61	1223.2
x2 = 0.1001	1241.79	1238.35	1234.91	1231.47	1228.05	1224.63	1221.22
x2 = 0.15	1236.8	1233.34	1229.88	1226.42	1222.98	1219.54	1216.12
x2 = 0.2	1231.24	1227.75	1224.26	1220.78	1217.32	1213.87	1210.42
x2 = 0.3	1218.1	1214.56	1211.02	1207.5	1203.99	1200.5	1197.01
x2 = 0.4	1201.9	1198.3	1194.72	1191.15	1187.59	1184.05	1180.51
x2 = 0.4999	1180.84	1177.18	1173.54	1169.91	1166.29	1162.69	1159.1
x2 = 0.6	1153.55	1149.82	1146.1	1142.4	1138.71	1135.03	1131.37
x2 = 0.7	1115.57	1111.73	1107.91	1104.11	1100.31	1096.53	1092.76
x2 = 0.8	1059.76	1055.79	1051.82	1047.87	1043.92	1039.98	1036.05
x2 = 0.9	971.1	966.89	962.68	958.49	954.29	950.1	945.91
x2 = 0.95	902.84	898.44	894.05	889.67	885.26	880.86	876.46
x2 = 0.98	849.24	844.69	840.15	835.63	831.05	826.49	821.91

CCOS(=O)(=O)[O-].CCn1cc[n+](C)c1 [1-ethyl-3-methylimidazolium ethyl sulfate] + ClCCl
x2 = 0
Conditions	mass density [kg/m3]
278.15 K	1251.04
283.15 K	1247.5
288.15 K	1244.04
293.15 K	1240.66
298.15 K	1237.27
303.15 K	1233.89
308.15 K	1230.51

CCOS(=O)(=O)[O-].CCn1cc[n+](C)c1 [1-ethyl-3-methylimidazolium ethyl sulfate] + O
mass density [kg/m3]
Conditions	278.15 K	283.15 K	288.15 K	293.15 K	298.15 K	303.15 K	308.15 K
x2 = 0	1250.63	1247.18	1243.79	1240.39	1237	1233.63	1230.27
x2 = 0.0136	1250.46	1246.91	1243.47	1240.09	1236.7	1233.31	1229.93
x2 = 0.0253	1250.19	1246.63	1243.21	1239.82	1236.42	1233.03	1229.65
x2 = 0.0415	1249.8	1246.24	1242.85	1239.46	1236.06	1232.67	1229.29
x2 = 0.0729	1249.17	1245.66	1242.27	1238.88	1235.48	1232.09	1228.7
x2 = 0.1429	1247.67	1244.26	1240.85	1237.44	1234.04	1230.64	1227.25
x2 = 0.2344	1245.53	1242.12	1238.69	1235.28	1231.86	1228.46	1225.06
x2 = 0.392	1239.94	1236.5	1233.06	1229.63	1226.2	1222.78	1219.36
x2 = 0.5695	1228.84	1225.35	1221.87	1218.47	1214.98	1211.55	1208.12
x2 = 0.7408	1207.89	1204.4	1200.9	1197.39	1193.86	1190.33	1186.78
x2 = 0.9032	1149.37	1146.18	1142.95	1139.65	1136.37	1133.02	1129.61
x2 = 0.9577	1094.19	1091.9	1089.5	1086.99	1084.4	1081.7	1078.89
x2 = 0.984	1045.11	1043.88	1042.43	1040.71	1038.74	1036.44	1033.81
x2 = 0.9923	1023.67	1022.91	1021.88	1020.61	1019.12	1017.42	1015.54
x2 = 0.9963	1012.18	1011.69	1010.85	1009.45	1008.24	1006.56	1004.39

CC1COC(=O)O1 (configuration not stated) [4-methyl-1,3-dioxolan-2-one] + CCOS(=O)(=O)[O-].CCn1cc[n+](C)c1
mass density [kg/m3]
Conditions	278.15 K	283.15 K	288.15 K	293.15 K	298.15 K	303.15 K	308.15 K
x1 = 0.0266	1250.69	1247.12	1243.68	1240.27	1236.86	1233.45	1230.06
x1 = 0.0513	1250.41	1246.82	1243.39	1239.97	1236.53	1233.11	1229.69
x1 = 0.0755	1250.13	1246.55	1243.1	1239.64	1236.19	1232.74	1229.3
x1 = 0.1231	1249.6	1246.04	1242.54	1239.04	1235.55	1232.06	1228.58
x1 = 0.1825	1248.89	1245.35	1241.79	1238.2	1234.68	1231.13	1227.6
x1 = 0.2548	1248.05	1244.41	1240.76	1237.11	1233.49	1229.88	1226.27
x1 = 0.3178	1247.17	1243.45	1239.73	1236.01	1232.32	1228.64	1224.96
x1 = 0.3778	1246.4	1242.61	1238.81	1235.04	1231.27	1227.52	1223.78
x1 = 0.4859	1244.38	1240.42	1236.47	1232.54	1228.62	1224.71	1220.83
x1 = 0.5725	1242.6	1238.5	1234.4	1230.34	1226.28	1222.25	1218.22
x1 = 0.6971	1239.08	1234.73	1230.4	1226.09	1221.79	1217.52	1213.25
x1 = 0.7812	1235.9	1231.35	1226.82	1222.31	1217.81	1213.33	1208.86
x1 = 0.8427	1232.95	1228.23	1223.51	1218.83	1214.15	1209.49	1204.84
x1 = 0.8893	1230.36	1225.48	1220.62	1215.78	1210.95	1206.14	1201.34
x1 = 0.9259	1227.81	1222.79	1217.79	1212.81	1207.84	1202.89	1197.94
x1 = 0.9554	1225.35	1220.2	1215.07	1209.96	1204.85	1199.76	1194.68
x1 = 0.9797	1223.22	1217.97	1212.73	1207.51	1202.3	1197.09	1191.9
x1 = 1	1220.93	1215.57	1210.21	1204.88	1199.55	1194.23	1188.91

CC(C)=O [acetone] + CCOS(=O)(=O)[O-].CCn1cc[n+](C)c1
x1 = 1
Conditions	mass density [kg/m3]
278.15 K	807.75
283.15 K	802.15
288.15 K	796.52
293.15 K	790.86
298.15 K	785.13
303.15 K	779.38
308.15 K	773.58

CC#N [acetonitrile] + CCOS(=O)(=O)[O-].CCn1cc[n+](C)c1
x1 = 1
Conditions	mass density [kg/m3]
278.15 K	798.01
283.15 K	792.69
288.15 K	787.33
293.15 K	781.97
298.15 K	776.56
303.15 K	771.14
308.15 K	765.68
